Assay [1] deals with T1, acyl-CoA:cholesterol acyltransferase (ACAT) (Oryctolagus cuniculus, UniProt G1SFD9).
T1 construct: a tissue preparation containing rabbit intestinal microsomes; from tissue; host or cells: rabbit intestinal microsomes
T1 sequence (G1SFD9 1-524): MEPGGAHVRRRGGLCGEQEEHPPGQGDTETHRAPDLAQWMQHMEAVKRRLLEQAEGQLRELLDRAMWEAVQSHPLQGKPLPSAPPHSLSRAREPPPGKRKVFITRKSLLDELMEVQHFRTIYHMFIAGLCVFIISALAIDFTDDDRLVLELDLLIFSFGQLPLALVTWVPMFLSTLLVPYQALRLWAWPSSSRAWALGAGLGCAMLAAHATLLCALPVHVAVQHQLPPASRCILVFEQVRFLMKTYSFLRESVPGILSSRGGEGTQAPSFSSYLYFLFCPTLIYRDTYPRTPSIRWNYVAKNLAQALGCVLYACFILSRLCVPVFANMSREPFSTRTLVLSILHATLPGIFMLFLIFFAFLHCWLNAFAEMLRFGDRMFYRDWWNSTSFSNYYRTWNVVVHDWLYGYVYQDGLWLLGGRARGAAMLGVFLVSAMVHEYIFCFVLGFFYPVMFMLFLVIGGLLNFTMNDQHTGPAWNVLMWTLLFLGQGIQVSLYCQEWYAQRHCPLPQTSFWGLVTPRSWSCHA
In words: in vitro ACAT inhibition test (radiolabeled cholesterol oleate formed from radiolabeled oleic acid, rabbit intestinal microsomes). The class given is biochemical. The settings on record: inhibition of acylation of cholesterol by oleic acid. From the text:
As shown by the data presented below in Table 1, the compounds of the present invention are potent inhibitors of the enzyme acyl-CoA:cholesterolacyltransferase (ACAT), and are thus effective in inhibiting the esterification and transport of cholesterol across the intestinal cell wall. The compounds of the present invention are thus useful in pharmaceutical formulations for the treatment of hypercholesterolemia or atherosclerosis. The ability of representative compounds of the present invention to inhibit ACAT was measured using an in vitro test more fully described in Field, F. J. and Salone, R. G., Biochemica et Biophysica 712:557-570 (1982). The test assesses the ability of a test compound to inhibit the acylation of cholesterol by oleic acid by measuring the amount of radio-labeled cholesterol oleate formed from radiolabeled oleic acid in a tissue preparation containing rabbit intestinal microsomes. The data appear in Table 1 where they are expressed as IC50 values; i.e. the concentration of test compound required to inhibit 50% expression of the enzyme.

The nature of assay [2]: PCC in vivo screen, blood total cholesterol in cholesterol-fed rats. The settings on record: male Sprague-Dawley rats, diet with 5.5% peanut oil, 1.5% cholesterol, 0.3%-0.5% cholic acid, 0.05% drug in diet, one week. From the text: In one in vivo screen, designated PCC, male Sprague-Dawley rats (approximately 200 g body weight) are randomly divided into groups and provided ad libidum a regular chow diet (Purina No. 5002, Ralston Purina Co., 711 West Fuesser Road, Mascoutah, Ill., 62224, USA), supplemented with 5.5% peanut oil, 1.5% cholesterol, and 0.3%-0.5% cholic acid, together with 0.05% of the test drug which is admixed into the diet. After one week the animals are etherized and a blood sample is taken from the heart and mixed with 0.14% ethylenediamine tetraacetic acid (EDTA) to measure the total cholesterol.

For the compound `CCc1cccc(CC)c1NC(=O)NC(Cc1ccccc1)c1ccccc1` (stereo not shown) [Example 1, N-(2,6-Diethylphenyl)-N'-(1,2-diphenylethyl)urea], the IC50 in assay [1] worked out at 93 nM. Moreover, in assay [2], the “Blood Cholesterol” value stood at 147 mg/dL and the “Blood Cholesterol % Change” value is -29%.
`CCc1cccc(CC)c1NC(=O)NC(c1ccccc1)c1ccccc1` [Example 2, N-(2,6-Diethylphenyl)-N'-(diphenylmethyl)urea] displayed an IC50 in assay [1] of 80 nM. For the same compound, in assay [2], the “Blood Cholesterol” value turned out to be 127 mg/dL and the “Blood Cholesterol % Change” value is listed as -43%.
The corresponding values for `CCc1cccc(CC)c1NC(=O)NCC(c1ccccc1)c1ccccc1` [Example 3, N-(2,6-Diethylphenyl)-N'-(2,2-diphenylethyl)urea] are 91 nM, 105 mg/dL and -53%.
The matching figures for `CC(C)c1cccc(C(C)C)c1NC(=O)NCC(c1ccccc1)c1ccccc1` [Example 4, N-[2,6-bis(1-methylethyl)phenyl]-N'-(2,2-diphenylethyl)urea]: 24 nM, 95 mg/dL and -52%.
For `CC(C)c1cccc(C(C)C)c1NC(=O)NC(c1ccccc1)c1ccccc1` [Example 5, N-[2,6-bis(1-methylethyl)phenyl)-N'-(diphenylmethyl)urea], the IC50 in assay [1] was found to be 45 nM.

For orientation: IC50 means the point on the concentration scale where inhibition reaches its midpoint. A higher IC50 goes with a need for much substance.

(Values after patent publication US5116848A, “N-(((2,6-disubstituted)phenyl)-N-diarylalkyl)ureas as antihyperlipidemic and antiatherosclerotic agents” (priority 1988, dated 1992).)
